Measurements: patent US9549932B2, “2-(morpholin-4-yl)-1,7-naphthyridines” (BAYER PHARMA AKTIENGESELLSCHAFT, priority 2014, dated 2017)

target: full-length human ATR protein (Homo sapiens (Human), UniProt Q13535); experiment: Binding assay ATR (TR-FRET tracer displacement); conditions: tracer A, TR-FRET; read-out: ATR binding (tracer A) IC50
In short: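 Full-length human GST-ATR co-purified with ATRIP, pre-complexed 30 min at 22 °C with anti-GST-Tb antibody, then pre-bound with compound 10 min. Tracer A or B added (2 µl of 100 nM solution), 30 min at 22 °C.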

Sequence of full-length human ATR protein (Q13535 other isoform, or with tags, fused parts or gaps): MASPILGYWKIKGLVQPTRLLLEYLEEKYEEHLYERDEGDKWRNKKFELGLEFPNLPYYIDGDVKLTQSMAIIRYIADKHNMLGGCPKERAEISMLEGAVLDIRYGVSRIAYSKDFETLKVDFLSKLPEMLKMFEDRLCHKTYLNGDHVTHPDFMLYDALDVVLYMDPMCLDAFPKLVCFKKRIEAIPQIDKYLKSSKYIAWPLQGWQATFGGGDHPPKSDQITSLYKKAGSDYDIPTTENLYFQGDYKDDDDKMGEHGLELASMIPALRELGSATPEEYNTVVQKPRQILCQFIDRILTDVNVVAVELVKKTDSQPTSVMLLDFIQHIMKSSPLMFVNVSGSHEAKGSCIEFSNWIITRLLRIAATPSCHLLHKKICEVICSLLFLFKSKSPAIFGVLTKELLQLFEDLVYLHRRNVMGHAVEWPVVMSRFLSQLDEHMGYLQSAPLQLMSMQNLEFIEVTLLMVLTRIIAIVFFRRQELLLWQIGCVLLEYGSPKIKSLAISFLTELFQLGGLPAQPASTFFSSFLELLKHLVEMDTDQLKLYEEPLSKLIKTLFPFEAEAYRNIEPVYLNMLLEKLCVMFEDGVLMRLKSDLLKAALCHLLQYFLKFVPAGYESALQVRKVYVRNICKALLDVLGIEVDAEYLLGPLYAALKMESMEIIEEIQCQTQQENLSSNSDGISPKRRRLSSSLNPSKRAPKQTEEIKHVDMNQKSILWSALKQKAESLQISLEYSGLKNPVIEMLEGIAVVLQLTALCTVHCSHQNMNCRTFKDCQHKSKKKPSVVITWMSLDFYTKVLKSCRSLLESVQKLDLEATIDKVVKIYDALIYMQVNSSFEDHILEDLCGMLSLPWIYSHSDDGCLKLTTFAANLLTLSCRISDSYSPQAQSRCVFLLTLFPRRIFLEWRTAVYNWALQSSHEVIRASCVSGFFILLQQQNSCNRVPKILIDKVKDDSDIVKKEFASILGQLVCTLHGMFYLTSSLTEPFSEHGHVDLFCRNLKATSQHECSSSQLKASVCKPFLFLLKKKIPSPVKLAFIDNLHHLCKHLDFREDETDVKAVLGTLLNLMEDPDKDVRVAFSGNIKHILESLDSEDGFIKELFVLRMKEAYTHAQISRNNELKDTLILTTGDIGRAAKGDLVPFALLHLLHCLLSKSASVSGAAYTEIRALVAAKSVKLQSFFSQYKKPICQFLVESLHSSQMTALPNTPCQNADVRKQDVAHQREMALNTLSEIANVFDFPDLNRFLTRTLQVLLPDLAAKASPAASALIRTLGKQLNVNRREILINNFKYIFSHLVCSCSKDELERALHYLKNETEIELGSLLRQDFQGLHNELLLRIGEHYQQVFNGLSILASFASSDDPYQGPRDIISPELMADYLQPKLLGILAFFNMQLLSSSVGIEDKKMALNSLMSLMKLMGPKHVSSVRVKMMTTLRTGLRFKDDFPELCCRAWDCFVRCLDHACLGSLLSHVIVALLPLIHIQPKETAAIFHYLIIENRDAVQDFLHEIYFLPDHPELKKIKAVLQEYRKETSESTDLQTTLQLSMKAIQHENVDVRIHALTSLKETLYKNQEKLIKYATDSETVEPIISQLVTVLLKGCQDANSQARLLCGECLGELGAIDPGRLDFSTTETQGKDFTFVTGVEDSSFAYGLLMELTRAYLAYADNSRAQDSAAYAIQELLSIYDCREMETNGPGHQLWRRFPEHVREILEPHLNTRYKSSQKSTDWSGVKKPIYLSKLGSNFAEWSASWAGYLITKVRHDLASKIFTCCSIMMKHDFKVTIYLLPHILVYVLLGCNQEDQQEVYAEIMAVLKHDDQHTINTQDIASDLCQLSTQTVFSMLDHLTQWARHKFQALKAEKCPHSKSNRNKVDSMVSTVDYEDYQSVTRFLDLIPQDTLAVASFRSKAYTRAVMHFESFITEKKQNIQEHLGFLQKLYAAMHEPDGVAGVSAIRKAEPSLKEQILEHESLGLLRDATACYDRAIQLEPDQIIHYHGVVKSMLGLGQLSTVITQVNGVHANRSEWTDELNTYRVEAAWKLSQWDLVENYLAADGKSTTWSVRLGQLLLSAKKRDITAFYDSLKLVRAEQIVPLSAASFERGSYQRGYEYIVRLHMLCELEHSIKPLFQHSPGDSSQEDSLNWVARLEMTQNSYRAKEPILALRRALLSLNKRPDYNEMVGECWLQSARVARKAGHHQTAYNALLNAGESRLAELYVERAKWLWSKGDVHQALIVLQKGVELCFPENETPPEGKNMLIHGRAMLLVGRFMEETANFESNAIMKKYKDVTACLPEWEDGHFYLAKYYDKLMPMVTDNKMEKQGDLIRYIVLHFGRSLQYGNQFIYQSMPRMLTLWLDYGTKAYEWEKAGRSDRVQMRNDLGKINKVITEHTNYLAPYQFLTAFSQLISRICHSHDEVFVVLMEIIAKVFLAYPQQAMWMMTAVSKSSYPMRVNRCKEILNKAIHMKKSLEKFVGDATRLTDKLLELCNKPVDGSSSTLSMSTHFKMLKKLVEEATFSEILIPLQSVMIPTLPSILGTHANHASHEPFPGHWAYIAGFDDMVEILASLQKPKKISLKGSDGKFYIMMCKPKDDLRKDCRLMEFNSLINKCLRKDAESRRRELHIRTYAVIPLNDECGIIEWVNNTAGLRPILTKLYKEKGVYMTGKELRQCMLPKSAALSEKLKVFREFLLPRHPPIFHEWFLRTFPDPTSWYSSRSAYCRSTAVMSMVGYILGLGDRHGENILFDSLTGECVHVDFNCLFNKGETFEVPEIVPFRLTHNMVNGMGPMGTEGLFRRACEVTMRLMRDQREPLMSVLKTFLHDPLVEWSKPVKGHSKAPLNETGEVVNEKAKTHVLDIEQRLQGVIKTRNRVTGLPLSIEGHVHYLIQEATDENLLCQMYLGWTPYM
Sequence of full-length human ATR protein (Q8WXE1 other isoform, or with tags, fused parts or gaps partner): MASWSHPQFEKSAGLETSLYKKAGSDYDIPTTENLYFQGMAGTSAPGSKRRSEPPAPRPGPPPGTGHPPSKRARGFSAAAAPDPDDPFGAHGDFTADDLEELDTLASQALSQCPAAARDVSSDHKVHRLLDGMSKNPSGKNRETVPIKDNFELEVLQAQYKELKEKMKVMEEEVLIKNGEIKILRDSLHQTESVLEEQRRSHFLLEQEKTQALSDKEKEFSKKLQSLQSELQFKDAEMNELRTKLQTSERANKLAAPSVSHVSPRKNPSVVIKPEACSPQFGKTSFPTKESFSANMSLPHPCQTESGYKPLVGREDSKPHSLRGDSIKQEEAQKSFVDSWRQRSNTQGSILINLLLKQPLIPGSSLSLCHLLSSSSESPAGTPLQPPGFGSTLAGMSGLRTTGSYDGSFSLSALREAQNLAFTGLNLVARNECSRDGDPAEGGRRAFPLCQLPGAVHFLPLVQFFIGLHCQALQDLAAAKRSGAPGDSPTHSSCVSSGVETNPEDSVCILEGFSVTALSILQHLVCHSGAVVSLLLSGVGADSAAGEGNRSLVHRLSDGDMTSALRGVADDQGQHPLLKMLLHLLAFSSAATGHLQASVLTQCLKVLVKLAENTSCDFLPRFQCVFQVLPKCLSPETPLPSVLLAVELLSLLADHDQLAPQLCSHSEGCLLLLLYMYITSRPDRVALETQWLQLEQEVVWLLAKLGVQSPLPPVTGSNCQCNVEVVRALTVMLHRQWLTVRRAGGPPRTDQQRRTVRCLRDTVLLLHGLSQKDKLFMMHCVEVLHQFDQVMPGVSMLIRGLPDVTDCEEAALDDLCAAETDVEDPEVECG

`CC(=O)Nc1cccc(-c2cc(N3CCOCC3)nc3c(-c4ccn[nH]4)nccc23)c1` [Example 305, N-{3-[2-(morpholin-4-yl)-8-(1H-pyrazol-5-yl)-1,7-naphthyridin-4-yl]phenyl}acetamide] and `Cc1cccc(-c2cc(N3CCOCC3)nc3c(-c4ccn[nH]4)nccc23)c1` [Example 308, 4-(3-methylphenyl)-2-(morpholin-4-yl)-8-(1H-pyrazol-5-yl)-1,7-naphthyridine] are within 1.5-fold of each other in IC50: 133 nM for the first, 131 nM for the second.

`COc1cccc(-c2cc(N3CCOCC3)nc3c(-c4ccn[nH]4)nccc23)c1` [Example 306, 4-(3-methoxyphenyl)-2-(morpholin-4-yl)-8-(1H-pyrazol-5-yl)-1,7-naphthyridine] and `Nc1cccc(-c2cc(N3CCOCC3)nc3c(-c4ccn[nH]4)nccc23)c1` [Example 335, 3-[2-(morpholin-4-yl)-8-(1H-pyrazol-5-yl)-1,7-naphthyridin-4-yl]aniline] are within 1.5-fold of each other in IC50: 82.3 nM for the first, 66.2 nM for the second.

Going from `COc1cc(OC)cc(-c2cc(N3CCOCC3)nc3c(-c4ccn[nH]4)nccc23)c1` [Example 307, 4-(3,5-dimethoxyphenyl)-2-(morpholin-4-yl)-8-(1H-pyrazol-5-yl)-1,7-naphthyridine] to `COc1ccc(-c2cc(N3CCOCC3)nc3c(-c4ccn[nH]4)nccc23)c(OC)c1` [Example 332, 4-(2,4-dimethoxyphenyl)-2-(morpholin-4-yl)-8-(1H-pyrazol-5-yl)-1,7-naphthyridine], the IC50 falls from 189 nM to 68.1 nM (2.8-fold).

Going from `COc1ccc(-c2cc(N3CCOCC3)nc3c(-c4ccn[nH]4)nccc23)cc1` [Example 309, 4-(4-methoxyphenyl)-2-(morpholin-4-yl)-8-(1H-pyrazol-5-yl)-1,7-naphthyridine] to `Fc1ccc(-c2cc(N3CCOCC3)nc3c(-c4ccn[nH]4)nccc23)cc1` [Example 314, 4-(4-fluorophenyl)-2-(morpholin-4-yl)-8-(1H-pyrazol-5-yl)-1,7-naphthyridine], the IC50 falls from 146 nM to 67.9 nM (2.2-fold). The second is the more potent here.

Going from `c1coc(Cc2cc(N3CCOCC3)nc3c(-c4ccn[nH]4)nccc23)c1` [Example 310, 4-(furan-2-ylmethyI)-2-(morpholin-4-yl)-8-(1H-pyrazol-5-yl)-1,7-naphthyridine] to `Nc1ccccc1-c1cc(N2CCOCC2)nc2c(-c3ccn[nH]3)nccc12` [Example 343, 2-[2-(morpholin-4-yl)-8-(1H-pyrazol-5-yl)-1,7-naphthyridin-4-yl]aniline], the IC50 falls from 97.7 nM to 19.8 nM (4.9-fold). The second is the more potent here.

Going from `Cc1cc(-c2cc(N3CCOCC3)nc3c(-c4ccn[nH]4)nccc23)cc(C)c1O` [Example 311, 2,6-dimethyl-4-[2-(morpholin-4-yl)-8-(1H-pyrazol-5-yl)-1,7-naphthyridin-4-yl]phenol] to `Cc1ccc(C)c(-c2cc(N3CCOCC3)nc3c(-c4ccn[nH]4)nccc23)c1` [Example 334, 4-(2,5-dimethylphenyl)-2-(morpholin-4-yl)-8-(1H-pyrazol-5-yl)-1,7-naphthyridine], the IC50 falls from 376 nM to 58.1 nM (6.5-fold).

`Cc1cccc(-c2cc(N3CCOCC3)nc3c(-c4ccn[nH]4)nccc23)c1C` [Example 312, 4-(2,3-dimethylphenyl)-2-(morpholin-4-yl)-8-(1H-pyrazol-5-yl)-1,7-naphthyridine] and `Cc1ccccc1-c1cc(N2CCOCC2)nc2c(-c3ccn[nH]3)nccc12` [Example 318, 4-(2-methylphenyl)-2-(morpholin-4-yl)-8-(1H-pyrazol-5-yl)-1,7-naphthyridine] are within 1.5-fold of each other in IC50: 23.7 nM for the first, 30.6 nM for the second.

`OCc1cccc(-c2cc(N3CCOCC3)nc3c(-c4ccn[nH]4)nccc23)c1` [Example 313, {3-[2-(morpholin-4-yl)-8-(1H-pyrazol-5-yl)-1,7-naphthyridin-4-yl]phenyl}methanol] and `Oc1cccc(-c2cc(N3CCOCC3)nc3c(-c4ccn[nH]4)nccc23)c1` [Example 337, 3-[2-(morpholin-4-yl)-8-(1H-pyrazol-5-yl)-1,7-naphthyridin-4-yl]phenol] are within 1.5-fold of each other in IC50: 29 nM for the first, 28.4 nM for the second.

`Clc1ccc(-c2cc(N3CCOCC3)nc3c(-c4ccn[nH]4)nccc23)cc1` [Example 316, 4-(4-chlorophenyl)-2-(morpholin-4-yl)-8-(1H-pyrazol-5-yl)-1,7-naphthyridine] and `Oc1ccc(-c2cc(N3CCOCC3)nc3c(-c4ccn[nH]4)nccc23)cc1` [Example 326, 4-[2-(morpholin-4-yl)-8-(1H-pyrazol-5-yl)-1,7-naphthyridin-4-yl]phenol] are within 1.5-fold of each other in IC50: 53.2 nM for the first, 73.2 nM for the second.

`COc1cccc(-c2cc(N3CCOCC3)nc3c(-c4ccn[nH]4)nccc23)c1F` [Example 317, 4-(2-fluoro-3-methoxyphenyl)-2-(morpholin-4-yl)-8-(1H-pyrazol-5-yl)-1,7-naphthyridine] and `COc1ccc(F)cc1-c1cc(N2CCOCC2)nc2c(-c3ccn[nH]3)nccc12` [Example 339, 4-(5-fluoro-2-methoxyphenyl)-2-(morpholin-4-yl)-8-(1H-pyrazol-5-yl)-1,7-naphthyridine] are within 1.5-fold of each other in IC50: 66.5 nM for the first, 89.6 nM for the second.

First: COc1cccc(-c2cc(N3CCOCC3)nc3c(-c4ccn[nH]4)nccc23)c1OC [Example 319, 4-(2,3-dimethoxyphenyl)-2-(morpholin-4-yl)-8-(1H-pyrazol-5-yl)-1,7-naphthyridine]
Second: COc1cccc(OC)c1-c1cc(N2CCOCC2)nc2c(-c3ccn[nH]3)nccc12 [Example 342, 4-(2,6-dimethoxyphenyl)-2-(morpholin-4-yl)-8-(1H-pyrazol-5-yl)-1,7-naphthyridine]
The IC50 of the first is 8.5-fold lower: 325 nM for the first, 2770 nM for the second. The first is the more potent here.

Compared with `CN(C)c1ccccc1-c1cc(N2CCOCC2)nc2c(-c3ccn[nH]3)nccc12` [Example 321, N,N-dimethyl-2-[2-(morpholin-4-yl)-8-(1H-pyrazol-5-yl)-1,7-naphthyridin-4-yl]aniline], `Fc1ccccc1-c1cc(N2CCOCC2)nc2c(-c3ccn[nH]3)nccc12` [Example 327, 4-(2-fluorophenyl)-2-(morpholin-4-yl)-8-(1H-pyrazol-5-yl)-1,7-naphthyridine] is 2.5-fold lower in IC50: 44.4 nM for the first, 17.7 nM for the second.

Compared with `CS(=O)(=O)Nc1ccccc1-c1cc(N2CCOCC2)nc2c(-c3ccn[nH]3)nccc12` [Example 322, N-{2-[2-(morpholin-4-yl)-8-(1H-pyrazol-5-yl)-1,7-naphthyridin-4-yl]phenyl}methanesulfonamide], `Clc1ccccc1-c1cc(N2CCOCC2)nc2c(-c3ccn[nH]3)nccc12` [Example 333, 4-(2-chlorophenyl)-2-(morpholin-4-yl)-8-(1H-pyrazol-5-yl)-1,7-naphthyridine] is 3.2-fold lower in IC50: 80.9 nM for the first, 25.3 nM for the second. The second is the more potent here.

First: CN(C)C(=O)c1ccc(-c2cc(N3CCOCC3)nc3c(-c4ccn[nH]4)nccc23)cc1 [Example 324, N,N-dimethyl-4-[2-(morpholin-4-yl)-8-(1H-pyrazol-5-yl)-1,7-naphthyridin-4-yl]benzamide]
Second: CC(C)c1ccc(-c2cc(N3CCOCC3)nc3c(-c4ccn[nH]4)nccc23)cc1 [Example 329, 2-(morpholin-4-yl)-4-[4-(propan-2-yl)phenyl]-8-(1H-pyrazol-5-yl)-1,7-naphthyridine]
The IC50 of the first is 2.2-fold lower: 77.7 nM for the first, 169 nM for the second. The first is the more potent here.

Going from `C/C=C/c1cc(N2CCOCC2)nc2c(-c3ccn[nH]3)nccc12` [Example 325, 2-(morpholin-4-yl)-4-[(1E)-prop-1-en-1-yl]-8-(1H-pyrazol-5-yl)-1,7-naphthyridine] to `Cn1nccc1-c1cc(N2CCOCC2)nc2c(-c3ccn[nH]3)nccc12` [Example 348, 4-(1-methyl-1H-pyrazol-5-yl)-2-(morpholin-4-yl)-8-(1H-pyrazol-5-yl)-1,7-naphthyridine], the IC50 rises from 34.4 nM to 55.3 nM (1.6-fold).

First: O=C(c1cccc(-c2cc(N3CCOCC3)nc3c(-c4ccn[nH]4)nccc23)c1)N1CCCCC1 [Example 328, {3-[2-(morpholin-4-yl)-8-(1H-pyrazol-5-yl)-1,7-naphthyridin-4-yl]phenyl}(piperidin-1-yl)methanone]
Second: O=C(NC1CC1)c1cccc(-c2cc(N3CCOCC3)nc3c(-c4ccn[nH]4)nccc23)c1 [Example 330, N-cyclopropyl-3-[2-(morpholin-4-yl)-8-(1H-pyrazol-5-yl)-1,7-naphthyridin-4-yl]benzamide]
The IC50 of the first is 3.2-fold higher: 296 nM for the first, 91.3 nM for the second.

First: c1ccc(-c2ccc(-c3cc(N4CCOCC4)nc4c(-c5ccn[nH]5)nccc34)cc2)cc1 [Example 331, 4-(biphenyl-4-yl)-2-(morpholin-4-yl)-8-(1H-pyrazol-5-yl)-1,7-naphthyridine]
Second: c1ccc(-c2ccccc2-c2cc(N3CCOCC3)nc3c(-c4ccn[nH]4)nccc23)cc1 [Example 345, 4-(biphenyl-2-yl)-2-(morpholin-4-yl)-8-(1H-pyrazol-5-yl)-1,7-naphthyridine]
The IC50 of the first is 6.8-fold higher: 376 nM for the first, 55.6 nM for the second.

Going from `COc1ccc(F)c(-c2cc(N3CCOCC3)nc3c(-c4ccn[nH]4)nccc23)c1` [Example 338, 4-(2-fluoro-5-methoxyphenyl)-2-(morpholin-4-yl)-8-(1H-pyrazol-5-yl)-1,7-naphthyridine] to `Fc1ccc(-c2cc(N3CCOCC3)nc3c(-c4ccn[nH]4)nccc23)c(F)c1` [Example 340, 4-(2,4-difluorophenyl)-2-(morpholin-4-yl)-8-(1H-pyrazol-5-yl)-1,7-naphthyridine], the IC50 falls from 103 nM to 33.5 nM (3.1-fold). The second is the more potent here.

Compared with `Fc1cccc(-c2cc(N3CCOCC3)nc3c(-c4ccn[nH]4)nccc23)c1F` [Example 341, 4-(2,3-difluorophenyl)-2-(morpholin-4-yl)-8-(1H-pyrazol-5-yl)-1,7-naphthyridine], `c1cc(-c2cc(N3CCOCC3)nc3c(-c4ccn[nH]4)nccc23)c2cccnc2c1` [Example 349, 2-(morpholin-4-yl)-8-(1H-pyrazol-5-yl)-4-(quinolin-5-yl)-1,7-naphthyridine] is 4.5-fold higher in IC50: 26.4 nM for the first, 119 nM for the second.

`Clc1cc(Cl)cc(-c2cc(N3CCOCC3)nc3c(-c4ccn[nH]4)nccc23)c1` [Example 344, 4-(3,5-dichlorophenyl)-2-(morpholin-4-yl)-8-(1H-pyrazol-5-yl)-1,7-naphthyridine] and `c1cncc(-c2cc(N3CCOCC3)nc3c(-c4ccn[nH]4)nccc23)c1` [Example 350, 2-(morpholin-4-yl)-8-(1H-pyrazol-5-yl)-4-(pyridin-3-yl)-1,7-naphthyridine] are within 1.5-fold of each other in IC50: 174 nM for the first, 162 nM for the second.

`c1ccc2sc(-c3cc(N4CCOCC4)nc4c(-c5ccn[nH]5)nccc34)cc2c1` [Example 347, 4-(1-benzothiophen-2-yl)-2-(morpholin-4-yl)-8-(1H-pyrazol-5-yl)-1,7-naphthyridine] was tested, and the IC50 was 241 nM.
